# Literature values, collected in patent publication US6703367B1, “Methods for treating hot flashes and gynaecomastia” (Praecis Pharmaceuticals Inc., priority 2001, dated 2004).
# Key:
# gynaecomastia = conditions: for men in whom gynaecomastia was reduced: middle aged men
# hot flashes = conditions: for reduce hot flashes to: progestin therapy
molecule,measurement,setting,value
C#C[C@]1(O)CC[C@H]2[C@@H]3CCC4=Cc5oncc5C[C@]4(C)[C@H]3CC[C@@]21C [DANAZOL],men in whom gynaecomastia was reduced,gynaecomastia,approximately 70%
CC(=O)[C@@]1(O)CC[C@H]2[C@@H]3C[C@H](C)C4=CC(=O)CC[C@]4(C)[C@H]3CC[C@@]21C [Medroxyprgesterone],reduce hot flashes to,hot flashes,75-100%
CC(=O)O[C@]1(C(C)=O)CC[C@H]2[C@@H]3C=C(C)C4=CC(=O)CC[C@]4(C)[C@H]3CC[C@@]21C [Megestrol acetate],reduce hot flashes to,hot flashes,25-85%
CLOMIPHENE,effect on gynaecomastia,gynaecomastia; in vivo,unsuccessful
Medthyldopa,decrease of hot flashes,hot flashes; in vivo,30%
Tamoxifen,men in whom gynaecomastia was reduced,gynaecomastia,approximately 70%
clonidine,"effect on hot flashes, orally administered",hot flashes; oral,varied
same,"effect on hot flashes, administered transdermally","hot flashes; transdermal, hot flashes due to Tamoxifen",reduced the frequency and severity of hot flashes
